From PMC6269660, “Anti-Inflammatory Cycloartane-Type Saponins of Astragalus membranaceus” (Molecules, 2013)

Legend:
Format in all cases: cell-based
[1] = tested on: LPS-induced NO production in RAW 264.7 macrophage cells; assay: Inhibition of LPS-induced NO production (nitrite, Griess reagent); details: for inhibition of NO production (in words): LPS-induced RAW264.7 macrophages
Protocol: Previous studies have already reported on the anti-inflammatory effects of components obtained from A. membranaceus. Thus, we also investigated the inhibitory effects of compounds 1–5 on NO production by using the Griess reaction to measure nitrite, a soluble oxidation product of NO, in the culture medium of LPS-induced RAW 264.7 macrophages.
(§1) Assays for NO production and cell viability were carried out as previously described. Briefly, RAW 264.7 macrophages were harvested and seeded in 24-well plates (3 × 10^5 cells/well) for the measurement of NO production. The plates were pretreated with various concentrations of samples for 1 h and incubated with LPS (1 μg/mL) for 7 h. The amount of NO was determined by the nitrite concentration in the cultured RAW264.7 macrophage supernatants using the Griess reagent. The cell viability was evaluated by MTT reduction.

[2] = Cell viability by MTT reduction; details: mouse, at a concentration of 100 μM, RAW 264.7 cells, MTT reduction, mean ± SD of three independent experiments
Protocol: as §1

RAW 264.7 macrophages = assay: Cell viability by MTT reduction; details: RAW 264.7 cells treated with compounds
Protocol: as §1

## O=C(O)/C=C/c1ccc(O)c(O)c1 [Caffeic acid, reference compound]
[1]; Mus musculus, RAW264.7, LPS-activated RAW 264.7 cells, pretreated 1 h with compounds, then LPS (1 μg/mL) for 7 h, mean ± SD of three independent experiments
  IC50: 830 ± 1150 nM
[2]
  viability at 8 h, 100 µM: 82.2 ± 1.64%

## CC(=O)OC1C(OC2CCC34CC35CCC3(C)C(C(C)CCC(O)C(C)(C)O)CCC3(C)C5CC(OC3OC(CO)C(O)C(O)C3O)C4C2(C)C)OCC(O)C1O [Compound 1, 3-O-β-(2'-O-acetyl)-D-xylopyranosyl-6-O-β-D-glucopyranosyl-(24S)-3β,6α,24α,25-tetrahydroxy-9,19-cyclolanostane]
[1]
  inhibition of NO production (in words): significant inhibition of NO production
RAW 264.7 macrophages
  cell toxicity / influence on cell viability (in words): without cytotoxicity
[2]; RAW 264.7 macrophages
  viability at 8 h, 100 µM: 93.2 ± 6.96%

## CC(=O)OC1C(O)COC(OC2CCC34CC35CCC3(C)C(C(C)CCC(O)C(C)(C)O)C(O)CC3(C)C5CC(OC3OC(CO)C(O)C(O)C3O)C4C2(C)C)C1OC(C)=O (centres unmarked) [Compound 2, agroastragaloside I]
RAW 264.7 macrophages
  cell toxicity / influence on cell viability (in words): Some cell toxicity was observed
[2]; RAW 264.7 macrophages
  viability at 8 h, 100 µM: 54.5 ± 1.21%

## CC(=O)OC1C(OC2CCC34CC35CCC3(C)C(C(C)CCC(O)C(C)(C)O)C(O)CC3(C)C5CC(OC3OC(CO)C(O)C(O)C3O)C4C2(C)C)OCC(O)C1O (centres unmarked) [Compound 3, agroastragaloside II]
RAW 264.7 macrophages
  cell toxicity / influence on cell viability (in words): Some cell toxicity was observed
[2]; RAW 264.7 macrophages
  viability at 8 h, 100 µM: 47.6 ± 3.4%

## CC(=O)O[C@@H]1[C@@H](O)[C@H](O[C@H]2CC[C@]34C[C@]35CC[C@]3(C)[C@@H]([C@@]6(C)CC[C@@H](C(C)(C)O)O6)[C@@H](O)C[C@@]3(C)[C@@H]5C[C@H](O[C@@H]3O[C@H](CO)[C@@H](O)[C@H](O)[C@H]3O)[C@H]4C2(C)C)OC[C@H]1O [Compound 4, isoastragaloside II]
RAW 264.7 macrophages
  cell toxicity / influence on cell viability (in words): Some cell toxicity was observed
[2]; RAW 264.7 macrophages
  viability at 8 h, 100 µM: 69 ± 1.82%

## CC(C)(O)[C@@H]1CC[C@](C)([C@H]2[C@@H](O)C[C@@]3(C)[C@@H]4C[C@H](O[C@@H]5O[C@H](CO)[C@@H](O)[C@H](O)[C@H]5O)[C@H]5C(C)(C)[C@@H](O[C@@H]6OC[C@@H](O)[C@H](O)[C@H]6O)CC[C@@]56C[C@@]46CC[C@]23C)O1 [Compound 5, astragaloside IV]
[1]
  inhibition of NO production (in words): significant inhibition of NO production
RAW 264.7 macrophages
  cell toxicity / influence on cell viability (in words): without cytotoxicity
[2]
  viability at 8 h, 100 µM: 94.4 ± 4.33%
